Measured values published in ChEMBL document CHEMBL1152723, “Remarkable enhancement in the DNA-binding ability of C2-fluoro substituted pyrrolo[2,1-c][1,4]benzodiazepines and their anticancer potential” (2009).

Columns and labels:
HOP-92 = test: Growth inhibition of human HOP92 cells after 48 hrs by sulforhodamine B protein assay; format: functional; settings: HOP-92, 48 h
KM12 = test: Growth inhibition of human KM12 cells after 48 hrs by sulforhodamine B protein assay; format: functional; settings: KM12, 48 h
Malme-3M = test: Growth inhibition of human MALME-3M cells after 48 hrs by sulforhodamine B protein assay; format: functional
NCI-H460 = test: Growth inhibition of human NCI-H460 cells after 48 hrs by sulforhodamine B protein assay; format: functional; settings: NCI-H460, 48 h
HL-60(TB) = test: Growth inhibition of human HL-60(TB) cells after 48 hrs by sulforhodamine B protein assay; format: functional; settings: HL-60, 48 h
MDA-MB-435 = test: Growth inhibition of human MDA-MB-435 cells after 48 hrs by sulforhodamine B protein assay; format: functional; settings: MDA-MB-435, 48 h
PC-3 = test: Growth inhibition of human PC3 cells after 48 hrs by sulforhodamine B protein assay; format: functional; settings: PC-3, 48 h
OVCAR-4 = test: Growth inhibition of human OVCAR4 cells after 48 hrs by sulforhodamine B protein assay; format: functional; settings: OVCAR-4, 48 h
SK-MEL-28 = test: Growth inhibition of human SK-MEL-28 cells after 48 hrs by sulforhodamine B protein assay; format: functional; settings: SK-MEL-28, 48 h
SK-MEL-5 = test: Growth inhibition of human SK-MEL-5 cells after 48 hrs by sulforhodamine B protein assay; format: functional; settings: SK-MEL-5, 48 h
DU-145 = test: Growth inhibition of human DU145 cells after 48 hrs by sulforhodamine B protein assay; format: functional; settings: DU-145, 48 h
DNA = test: Binding affinity to calf thymus DNA assessed as change in melting temperature at a compound to DNA molar ratio of 1:5 at pH 7 by thermal denaturation assay; format: nucleic-acid assay; settings: Bos taurus
NCI-H522 = test: Growth inhibition of human NCI-H522 cells after 48 hrs by sulforhodamine B protein assay; format: functional; settings: NCI-H522, 48 h
[1] = molecular target: T1, Type II restriction enzyme BamHI (Bacillus amyloliquefaciens) (UniProt P23940); test: Inhibition of Bacillus amyloliquefaciens BamH1-mediated pBR322 cleavage after 16 hrs by RED100-restriction endonuclease digestion assay
T1 sequence (whole entry): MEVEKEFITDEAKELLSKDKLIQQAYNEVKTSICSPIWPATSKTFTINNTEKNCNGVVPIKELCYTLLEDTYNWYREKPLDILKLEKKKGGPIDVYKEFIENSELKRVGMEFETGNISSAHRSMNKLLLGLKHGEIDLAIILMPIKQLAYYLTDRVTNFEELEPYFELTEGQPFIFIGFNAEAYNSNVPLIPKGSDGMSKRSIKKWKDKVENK

CAKI-1 = test: Growth inhibition of human Caki1 cells after 48 hrs by sulforhodamine B protein assay; format: functional; settings: CAKI-1, 48 h
BT-549 = test: Growth inhibition of human BT549 cells after 48 hrs by sulforhodamine B protein assay; format: functional; settings: BT-549, 48 h
[2] = Growth inhibition of human Hs 578T cells after 48 hrs by sulforhodamine B protein assay; format: functional
786-0 = test: Growth inhibition of human 786-0 cells after 48 hrs by sulforhodamine B protein assay; format: functional; settings: 786-0, 48 h
COLO 205 = test: Growth inhibition of human COLO205 cells after 48 hrs by sulforhodamine B protein assay; format: functional; settings: COLO 205, 48 h
HT-29 = test: Growth inhibition of human HT-29 cells after 48 hrs by sulforhodamine B protein assay; format: functional; settings: HT-29, 48 h
HCT-116 = test: Growth inhibition of human HCT116 cells after 48 hrs by sulforhodamine B protein assay; format: functional; settings: HCT-116, 48 h
OVCAR-3 = test: Growth inhibition of human OVCAR-3 cells after 48 hrs by sulforhodamine B protein assay; format: functional; settings: OVCAR-3, 48 h
MOLT-4 = test: Growth inhibition of human MOLT4 cells after 48 hrs by sulforhodamine B protein assay; format: functional; settings: MOLT-4, 48 h
K562 = test: Growth inhibition of human K562 cells after 48 hrs by sulforhodamine B protein assay; format: functional; settings: K562, 48 h
SN12C = test: Growth inhibition of human SN12C cells after 48 hrs by sulforhodamine B protein assay; format: functional
IGROV-1 = test: Growth inhibition of human IGROV1 cells after 48 hrs by sulforhodamine B protein assay; format: functional; settings: IGROV-1, 48 h
NCI-H23 = test: Growth inhibition of human NCI-H23 cells after 48 hrs by sulforhodamine B protein assay; format: functional; settings: NCI-H23, 48 h
UACC-257 = test: Growth inhibition of human UACC257 cells after 48 hrs by sulforhodamine B protein assay; format: functional; settings: UACC-257, 48 h
SNB-19 = test: Growth inhibition of human SNB19 cells after 48 hrs by sulforhodamine B protein assay; format: functional; settings: SNB-19, 48 h
SF-539 = test: Growth inhibition of human SF539 cells after 48 hrs by sulforhodamine B protein assay; format: functional; settings: SF-539, 48 h
T47D = test: Growth inhibition of human T47D cells after 48 hrs by sulforhodamine B protein assay; format: functional
MCF7 = test: Growth inhibition of human MCF7 cells after 48 hrs by sulforhodamine B protein assay; format: functional; settings: MCF7, 48 h
A549 = test: Growth inhibition of human A549 cells after 48 hrs by sulforhodamine B protein assay; format: functional; settings: A549, 48 h
OVCAR-8 = test: Growth inhibition of human OVCAR8 cells after 48 hrs by sulforhodamine B protein assay; format: functional; settings: OVCAR-8, 48 h
HCT-15 = test: Growth inhibition of human HCT15 cells after 48 hrs by sulforhodamine B protein assay; format: functional; settings: HCT-15, 48 h
SR = test: Growth inhibition of human SR cells after 48 hrs by sulforhodamine B protein assay; format: functional
SK-OV-3 = test: Growth inhibition of human SKOV3 cells after 48 hrs by sulforhodamine B protein assay; format: functional; settings: SK-OV-3, 48 h
NCI-H322M = test: Growth inhibition of human NCI-H322M cells after 48 hrs by sulforhodamine B protein assay; format: functional
M14 = test: Growth inhibition of human M14 cells after 48 hrs by sulforhodamine B protein assay; format: functional; settings: M14, 48 h
NCI/ADR-RES = test: Growth inhibition of human NCI/ADR-RES cells after 48 hrs by sulforhodamine B protein assay; format: functional
CCRF-CEM = test: Growth inhibition of human CCRF-CEM cells after 48 hrs by sulforhodamine B protein assay; format: functional
[3] = Growth inhibition of human […] cells after 48 hrs by sulforhodamine B protein assay; format: functional
LOX IMVI = test: Growth inhibition of human LOXIMVI cells after 48 hrs by sulforhodamine B protein assay; format: functional
SK-MEL-2 = test: Growth inhibition of human SK-MEL-2 cells after 48 hrs by sulforhodamine B protein assay; format: functional; settings: SK-MEL-2, 48 h
RXF 393 = test: Growth inhibition of human […] cells after 48 hrs by sulforhodamine B protein assay; format: functional; settings: RXF 393, 48 h

COc1cc2c(cc1OCCCN1CCN(CCCOc3cc4c(cc3OC)C(=O)N3CC(F)C[C@H]3C=N4)CC1)N=C[C@@H]1CC(F)CN1C2=O (stereo not given in full)
GI50 (HOP-92): < 90 nM
GI50 (KM12): 100 nM
GI50 (Malme-3M): < 20 nM
GI50 (NCI-H460): < 10 nM
GI50 (HL-60(TB)): < 10 nM
GI50 (MDA-MB-435): < 30 nM
GI50 (PC-3): 10 nM
GI50 (OVCAR-4): 460 nM
GI50 (SK-MEL-28): < 30 nM
GI50 (SK-MEL-5): < 40 nM
GI50 (DU-145): 40 nM
ΔTm (DNA): 37 °C
GI50 (NCI-H522): < 10 nM
Activity [1]: Dose-dependent effect
GI50 (CAKI-1): 20 nM
GI50 (BT-549): < 90 nM
GI50 [2]: < 40 nM
GI50 (786-0): < 30 nM
GI50 (COLO 205): < 40 nM
GI50 (HT-29): 170 nM
GI50 (HCT-116): < 20 nM
GI50 (OVCAR-3): < 40 nM
GI50 (MOLT-4): < 10 nM
GI50 (K562): < 10 nM
GI50 (SN12C): < 10 nM
GI50 (IGROV-1): < 50 nM
GI50 (NCI-H23): < 30 nM
GI50 (UACC-257): 1270 nM
GI50 (SNB-19): < 20 nM
GI50 (SF-539): < 10 nM
GI50 (T47D): < 10 nM
GI50 (MCF7): < 10 nM
GI50 (A549): 120 nM
GI50 (OVCAR-8): 100 nM
GI50 (HCT-15): 2560 nM
GI50 (SR): < 10 nM
GI50 (SK-OV-3): < 70 nM
GI50 (NCI-H322M): 260 nM
GI50 (M14): < 30 nM
GI50 (NCI/ADR-RES): 5250 nM
GI50 (CCRF-CEM): < 10 nM
GI50 [3]: < 20 nM
GI50 (LOX IMVI): < 10 nM
GI50 (SK-MEL-2): 500 nM
GI50 (RXF 393): 110 nM
